Measured values taken from ChEMBL document CHEMBL1201862, “PubChem BioAssay data set” (2004).
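96-well plates; 48 h exposure; 5 concentrations. Endpoints by linear interpolation between flanking doses. Not reached: highest tested concentration assigned. At the GI50, growth is halved.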 The source made the active and inactive calls. Rule as the data show it: active = GI50 up to about 1.1 µM and inactive = higher.

Key:
Test in all cases: growth of human tumour cells (NCI), 48 h
IGROV-1 = tested on: IGROV-1
SK-MEL-5 = tested on: SK-MEL-5
HOP-18 = tested on: HOP-18
OVCAR-8 = tested on: OVCAR-8
OVCAR-3 = tested on: OVCAR-3
SNB-75 = tested on: SNB-75
HCT-15 = tested on: HCT-15
SNB-78 = tested on: SNB-78
HOP-62 = tested on: HOP-62
RPMI-8226 = tested on: RPMI-8226
SW-620 = tested on: SW-620
SR = tested on: SR
HL-60 = tested on: HL-60
HCT-116 = tested on: HCT-116
DLD-1 = tested on: DLD-1
HT-29 = tested on: HT-29

Structure (SMILES) | GI50 (IGROV-1) | GI50 (SK-MEL-5) | GI50 (HOP-18) | GI50 (OVCAR-8) | GI50 (OVCAR-3) | GI50 (SNB-75) | GI50 (HCT-15) | GI50 (SNB-78) | GI50 (HOP-62) | GI50 (RPMI-8226) | GI50 (SW-620) | GI50 (SR) | GI50 (HL-60) | GI50 (HCT-116) | GI50 (DLD-1) | GI50 (HT-29)
COC(=O)/C([Se]c1c(C)cc(C)cc1C)=C(/[Se]c1c(C)cc(C)cc1C)C(=O)OC | > 100 µM (inactive) | 86.3 µM (inactive) | > 100 µM (inactive) | > 100 µM (inactive) | > 100 µM (inactive) | > 100 µM (inactive) | 81.3 µM | > 100 µM (inactive) | > 100 µM (inactive) | 76 µM (inactive) | > 100 µM (inactive) | 39.9 µM (inactive) | > 100 µM (inactive) | > 100 µM (inactive) | > 100 µM (inactive) | 91.2 µM (inactive)
CSc1ccc(OCC2OC2O)cc1 (configuration not stated) | > 100 µM (inactive) | 16 µM (inactive) | > 100 µM (inactive) | 55.6 µM (inactive) | 30.6 µM (inactive) | > 65.6 µM (inactive) | 23.5 µM | > 100 µM (inactive) | > 100 µM (inactive) | 30.8 µM (inactive) | 18.4 µM (inactive) | 45.2 µM (inactive) | 27.3 µM (inactive) | 17.3 µM (inactive) | 45.7 µM (inactive) | 32.3 µM (inactive)
CC(=O)OCC1=C(CCC#N)N2C(=O)C(NC(=O)Cc3cccs3)C2[S+]([O-])C1 (configuration not stated) | > 100 µM (inactive) | > 100 µM (inactive) | > 100 µM (inactive) | > 100 µM (inactive) | > 100 µM (inactive) | > 100 µM (inactive) | > 100 µM | > 100 µM (inactive) | > 100 µM (inactive) | > 100 µM (inactive) | > 100 µM (inactive) | > 100 µM (inactive) | > 100 µM (inactive) | > 100 µM (inactive) | > 100 µM (inactive) | > 100 µM (inactive)
CC(=O)OCCOCNC(=S)N/N=C/c1ccc2ccccc2n1 | 44.6 µM (inactive) | 23.9 µM (inactive) | 75.9 µM (inactive) | 37.1 µM (inactive) | 35.3 µM (inactive) | 51.3 µM (inactive) | 29.8 µM | > 100 µM (inactive) | 45.1 µM (inactive) | > 100 µM (inactive) | 36.1 µM (inactive) | 24.8 µM (inactive) | 36.4 µM (inactive) | 42.2 µM (inactive) | 54.1 µM (inactive) | 40.6 µM (inactive)
CCOC(=O)C1(Br)C(c2ccccc2)NC(=O)NC1(C)Br (configuration not stated) | 54.6 µM (inactive) | 57.4 µM (inactive) | > 100 µM (inactive) | 89.3 µM (inactive) | 62.5 µM (inactive) | > 100 µM (inactive) | > 100 µM | > 100 µM (inactive) | > 100 µM (inactive) | 62.2 µM (inactive) | 0.332 µM (active) | 57.1 µM (inactive) | 17.9 µM (inactive) | 60.4 µM (inactive) | 55.7 µM (inactive) | > 100 µM (inactive)
CC1(C(=O)O)CCOc2ccccc21 (configuration not stated) | > 100 µM (inactive) | > 100 µM (inactive) | > 100 µM (inactive) | > 100 µM (inactive) | > 100 µM (inactive) | > 100 µM (inactive) | > 100 µM | > 100 µM (inactive) | > 100 µM (inactive) | > 100 µM (inactive) | > 100 µM (inactive) | > 100 µM (inactive) | > 100 µM (inactive) | > 100 µM (inactive) | > 100 µM (inactive) | > 100 µM (inactive)
CCC12C=CCN3CC[C@]4(C(=C(C(=O)OC)[C@@H]1Nc1ncnc5c1ncn5C1OC(COC(C)=O)C(OC(C)=O)C1OC(C)=O)Nc1ccccc14)C32 (some centres not stated) | 2.85 µM (inactive) | 2.55 µM (inactive) | 7.64 µM (inactive) | 2.18 µM (inactive) | 1.98 µM (inactive) | 2.43 µM (inactive) | 3.04 µM | 3.15 µM (inactive) | 2.84 µM (inactive) | 3.27 µM (inactive) | 2.45 µM (inactive) | 2.34 µM (inactive) | 2.65 µM (inactive) | 2.82 µM (inactive) | 2.69 µM (inactive) | 2.23 µM (inactive)
